Experimental data from patent publication US11358947B2, “Substituted 2-acylamino-cycloalkylthiophene-3-carboxylic acid arylamides as inhibitors of calcium-activated chloride channel TMEM16A” (THE REGENTS OF THE UNIVERSITY OF CALIFORNIA, priority 2017, dated 2022).
Where “and” joins values, the source holds several entries; their conditions need not be identical. Equal entries are not always repeated.

What was measured:
[1] = biological target: T1, TMEM16A (Homo sapiens, UniProt Q5XXA6); experiment: TMEM16A functional fluorescence plate reader (FPR) assay, iodide influx in FRT cells with YFP; type: cell-based; conditions: TMEM16A-expressing FRT cells, compound 10 min before iodide/ATP
T1 sequence (Q5XXA6 1-986): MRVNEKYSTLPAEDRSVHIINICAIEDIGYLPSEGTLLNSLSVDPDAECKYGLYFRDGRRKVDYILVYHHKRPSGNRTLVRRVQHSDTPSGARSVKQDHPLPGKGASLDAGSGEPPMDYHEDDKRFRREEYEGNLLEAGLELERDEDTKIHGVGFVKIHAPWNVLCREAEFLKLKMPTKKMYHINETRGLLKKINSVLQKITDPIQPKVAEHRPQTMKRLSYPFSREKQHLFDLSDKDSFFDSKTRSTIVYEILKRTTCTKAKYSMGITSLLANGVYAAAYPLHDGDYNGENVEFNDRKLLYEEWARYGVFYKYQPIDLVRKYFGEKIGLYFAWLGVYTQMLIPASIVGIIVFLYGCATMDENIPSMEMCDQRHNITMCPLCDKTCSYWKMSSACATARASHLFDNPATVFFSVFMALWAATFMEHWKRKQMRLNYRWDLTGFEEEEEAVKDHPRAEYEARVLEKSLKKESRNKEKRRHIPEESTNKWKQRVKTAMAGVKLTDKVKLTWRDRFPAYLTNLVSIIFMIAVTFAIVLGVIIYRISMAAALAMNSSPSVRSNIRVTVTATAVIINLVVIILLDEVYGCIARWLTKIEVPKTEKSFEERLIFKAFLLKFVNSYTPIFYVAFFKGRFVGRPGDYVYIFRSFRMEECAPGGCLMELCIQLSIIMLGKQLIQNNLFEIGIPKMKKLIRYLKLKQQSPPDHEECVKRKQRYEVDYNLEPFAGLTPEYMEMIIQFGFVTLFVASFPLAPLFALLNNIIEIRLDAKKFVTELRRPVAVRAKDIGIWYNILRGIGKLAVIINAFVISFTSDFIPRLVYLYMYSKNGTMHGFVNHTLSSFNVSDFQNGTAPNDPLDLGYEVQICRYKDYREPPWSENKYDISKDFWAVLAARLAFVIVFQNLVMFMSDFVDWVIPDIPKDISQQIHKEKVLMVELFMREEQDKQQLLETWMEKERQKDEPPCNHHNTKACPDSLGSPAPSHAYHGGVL
Experimental: A high-throughput screening assay was previously developed to identify small molecule inhibitors of TMEM16A. […] The assay involved addition of test compounds to the cells for 10 min in a physiological chloride-containing solution, followed by addition of an iodide solution containing ATP. TMEM16A-facilitated iodide influx was determined from the initial time course of decreasing YFP fluorescence.
2-Acylamino-cycloalkylthiophene-3-carboxylic acid arylamides 6aa-6bw were initially evaluated for inhibition of TMEM16A anion channel function using a cell-based functional plate reader assay as reported.
Yields (%) are of the isolated or purified products. IC50 (μM) for inhibition of TMEM16A anion conductance using a fluorescence plate reader (FPR) assay.
Cell lines and culture. Fischer Rat Thyroid (FRT) cells stably co-expressing TMEM16A, TMEM16B and human wild-type CFTR and the halide-sensitive yellow fluorescent protein (YFP)-H148Q were cultured as described. […] For plate reader assays, cells were plated in black 96-well microplates (Corning-Costar Corp., New York, N.Y.) at a density of 20,000 cells per well and assayed 24-48 hours after plating.
(§1) TMEM16A functional assay. TMEM16A functional plate-reader assay was done as previously described. […] Test compounds (0.5 μl in DMSO) were added to each well at specified concentration. […] The initial rate of I− influx following each of the solution additions was computed from fluorescence data by nonlinear regression. TMEM16B activity was assayed similarly as described using FRT cells co-expressing YFP and TMEM16B.

[2] = system: SW-480 cells; experiment: SW-480 cell proliferation, AlamarBlue after 72 h; type: cell-based; conditions: for IC50: Homo sapiens, SW480, AlamarBlue after 72 h of drug treatment, read-out: IC50 inhibition of SW-480 cell proliferation
Experimental: Compounds according to the present disclosure (structures shown in FIG. 5B) were tested for their inhibitory effect on proliferation of SW-480 cell line.
SW-480 cells were cultured on plastic in Leibovitz L15 medium supplemented with 10% fetal bovine serum, 2 mM L-glutamine, 100 units/mL penicillin, and 100 μg/mL streptomycin. The cells were incubated at 37° C. without CO2.
SW-480 cells were plated into black 96-well microplates (Corning-Costar Corp., New York, N.Y.) at 10% seeding. The cells were treated with test compounds dissolved in DMSO in serial dilution while maintaining the final concentration of DMSO at 0.5%. Plated cells were then incubated for 72 h at 37° C. Cell proliferation was quantified using the AlamarBlue assay (Invitrogen, Carlsbad, Calif.) as per the manufacturer's instructions. Data was normalized against untreated control cells that were lysed for 10 minutes using Triton-X100 (0.1% in PBS).

[3] = system: FRT null cells; experiment: Cytotoxicity by Alamar Blue assay in FRT cells; type: cell-based, rat; conditions: 8 h
Experimental: (§2) Concentration-dependent inhibition of TMEM16A measured by short-circuit current assay; TMEM16B and non-TMEM16 anion conductance measured using a fluorescence plate reader assay using FRT and HT-29 cells respectively; cell viability measured in FRT null cells.
(§3) We further assayed the compound potency on endogenous non-TMEM16A. Ca^2+-activated Cl^− channel in HT-29 cells.
Cytotoxicity. FRT cells were cultured overnight in black 96-well Costar microplates and incubated with 5 μM test compounds for 8 h. Cytotoxicity was measured by Alamar Blue assay (Invitrogen, Carlsbad, Calif.) as per the manufacturer's instructions.

[4] = biological target: T1, TMEM16A; experiment: Short-circuit current assay in TMEM16A-expressing FRT cells; type: cell-based
Source text: Measurements were done in FRT cells expressing TMEM16A.
as §2
Short-circuit current measurement. Short-circuit current measurements were done as described. (See Piechowicz, K. A. et al., J Enzyme Inhib Med Chem 2016, 1-7.) Briefly, Snapwell inserts (Corning Costar, Corning, N.Y.) containing TMEM16A-expressing FRT cells were mounted in Ussing chambers (Physiological instruments, San Diego, Calif.). The hemichambers were filled with 5 ml of HCO3^− buffered solution (basolateral) and half-Cl^− solution (apical), and the basolateral membrane was permeabilized with 250 μg/ml amphotericin B. Solutions were bubbled with 95% O2/5% CO2 and maintained at 37° C., and short-circuit current was measured on a DVC-1000 voltage clamp (World Precision Instruments Inc., Sarasota, Fla.) using Ag/AgCl electrodes and 3 M KCl agar bridges.

[5] = biological target: T2, TMEM16B (Homo sapiens, UniProt Q9NQ90); experiment: TMEM16B fluorescence plate reader assay in FRT cells; type: cell-based
T2 construct: expressed in transfected cells; host or cells: Fischer Rat Thyroid (FRT) cells co-expressing YFP
T2 sequence (Q9NQ90 1-998): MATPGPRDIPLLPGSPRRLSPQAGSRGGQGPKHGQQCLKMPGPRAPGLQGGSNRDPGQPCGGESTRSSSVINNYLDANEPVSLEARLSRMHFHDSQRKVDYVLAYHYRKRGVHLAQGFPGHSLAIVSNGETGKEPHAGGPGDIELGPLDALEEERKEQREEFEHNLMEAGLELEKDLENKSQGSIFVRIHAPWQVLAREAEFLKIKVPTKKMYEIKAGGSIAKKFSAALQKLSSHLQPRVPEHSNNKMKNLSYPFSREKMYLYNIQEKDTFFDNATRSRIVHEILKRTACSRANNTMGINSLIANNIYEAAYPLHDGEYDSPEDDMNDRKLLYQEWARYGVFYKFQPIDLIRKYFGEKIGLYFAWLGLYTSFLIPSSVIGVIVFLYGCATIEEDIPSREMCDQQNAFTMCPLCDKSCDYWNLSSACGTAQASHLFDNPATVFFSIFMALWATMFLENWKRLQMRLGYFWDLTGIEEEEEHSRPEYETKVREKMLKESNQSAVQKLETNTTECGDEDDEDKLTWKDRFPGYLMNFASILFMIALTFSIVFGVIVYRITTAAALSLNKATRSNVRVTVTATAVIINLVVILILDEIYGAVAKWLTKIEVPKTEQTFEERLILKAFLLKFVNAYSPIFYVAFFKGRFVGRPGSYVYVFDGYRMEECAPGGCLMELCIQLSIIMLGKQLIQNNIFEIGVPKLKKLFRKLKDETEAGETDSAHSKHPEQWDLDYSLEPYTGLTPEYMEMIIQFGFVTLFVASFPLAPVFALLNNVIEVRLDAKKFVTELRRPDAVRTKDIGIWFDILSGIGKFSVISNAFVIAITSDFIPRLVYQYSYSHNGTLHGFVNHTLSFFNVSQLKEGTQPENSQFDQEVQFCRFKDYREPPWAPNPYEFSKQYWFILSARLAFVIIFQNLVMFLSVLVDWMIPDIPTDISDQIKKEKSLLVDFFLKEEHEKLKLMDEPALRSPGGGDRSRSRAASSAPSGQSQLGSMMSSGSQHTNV
Experimental: as §2, §3, §1

[6] = system: SW-480 cells; conditions: several tumor cell lines including SW480, reported; cited from earlier work
[7] = In vitro metabolic stability with rat liver microsomes and NADPH; type: in vitro ADME; conditions: rat liver microsomes + NADPH, 180 min
Experimental: (3B) LC/MS traces showing total ion counts as a function of incubation time.
These compounds were incubated with rat liver microsomes and NADPH, and non-metabolized compounds were quantified by ESI-LCMS. […] It is speculated that Ani-9 could be oxidized at the aryl methyl or N—N bond; or hydrolyzed at the amide or hydrazone linkages.
Compounds (each 10 uM) were incubated for specific time points (2, 5, 15, 30, 60, 180 min) with shaking at 37° C. with rat liver microsomes (1 mg protein/mL, Sigma-Aldrich, St. Louis, Mo.) in potassium phosphate butler (100 mM) containing 1 mM NADPH. The mixture was then chilled on ice, and 0.5 mL of ice-cold ethyl acetate was added. Samples were centrifuged for 15 min at 3000 RPM. The supernatant was evaporated to dryness, and the residue was dissolved in 80 μL of mobile phase (acetonitrile:/water, 3:1, containing 0.1% formic acid) for LC/MS. Reverse-phase HPLC separation was carried out using a Waters C18 column (2.1 mm×100 mm, […]) equipped with a solvent delivery system (Waters model 2690, Milford, Mass.).

`O=C(Nc1ccccc1F)c1c(NC(=O)C(F)(F)F)sc2c1CCCCC2` [Compound 6aj, 2-(2,2,2-Trifluoro-acetylamino)-5,6,7,8-tetrahydro-4H-cyclohepta[b]thiophene-3-carboxylic acid (2-fluoro-phenyl)-amide] gave an IC50 [1] of 1300 nM.

In the case of `COc1ccc(Cl)cc1NC(=O)c1c(NC(=O)C(F)(F)F)sc2c1CCCCC2` [am1_47, N-(5-chloro-2-methoxyphenyl)-2-(2,2,2-trifluoroacetamido)-5,6,7,8-tetrahydro-4H-cyclohepta[b]thiophene-3-carboxamide], the IC50 [2] is reported as 470 nM and the “Potency in inhibiting proliferation of SW480 cells compared with CaCCinh-A01 (in words)” value ([2]; SW480 cells) is reported as “considerably more potent than CaCCinh-A01”.

For `CCC(=O)Nc1sc2c(c1C(=O)Nc1ccccc1)CCCCC2` [Compound 6ah, 2-Propionylamino-5,6,7,8-tetrahydro-4H-cyclohepta[b]thiophene-3-carboxylic acid phenylamide], the IC50 [1] was 1200 nM.

`O=C(Nc1ccccc1OC(F)(F)F)c1c(NC(=O)C(F)(F)I)sc2c1CCC2` [Compound 6bw, 2-(2,2-Difluoro-2-iodo-acetylamino)-5,6-dihydro-4H-cyclopenta[b]thiophene-3-carboxylic add (2-trifluoromethoxy-phenyl)-amide] showed an IC50 [1] of 1880 nM.

In the case of `Cc1ccccc1NC(=O)c1c(NC(=O)C(F)(F)Cl)sc2c1CCCCC2` [Compound 6bk, 2-(2-Chloro-2,2-difluoro-acetylamino)-5,6,7,8-tetrahydro-4H-cyclohepta[b]thiophene-3-carboxylic acid o-tolylamide], the “Cellular survival % at 5 μM” value [3] is reported as 98%, the IC50 [4] is reported as 230 nM and the IC50 [2] is reported as 750 nM. The IC50 [1] was 80 to 180 nM and 180 nM and the IC50 [5] was 400 nM.

In the case of `Cc1ccccc1NC(=O)c1c(NC(=O)C(F)(F)I)sc2c1CCCCC2` [Compound 6bn, 2-(2,2-Difluoro-2-iodo-acetylamino)-5,6,7,8-tetrahydro-4H-cyclohepta[b]thiophene-3-carboxylic acid o-tolylamide], the “Cellular survival % at 5 μM” value [3] is reported as 96%, the IC50 [4] is reported as 730 nM and the IC50 [1] is reported as 600 nM. It also gave an IC50 [5] of 1400 nM.

In the case of `CC(C)(C)C1CCc2c(sc(NC(=O)c3ccco3)c2C(=O)O)C1` (stereo not drawn) [CaCCinh-A01, 6-t-butyl-2-(furan-2-carboxamido)-4,5,6,7-tetrahydrobenzo[b] thiophene-3-carboxylic acid], the “Concentrations reported to inhibit proliferation of TMEM16A-expressing tumor cell lines” value [6] is given as 10 to 20 µM.

In the case of `COc1ccccc1/C=N/NC(=O)COc1ccc(Cl)cc1C` [Ani-9, reference compound], the “Degradation (in words)” value [7] is reported as “near complete degradation”.

`O=C(Nc1ccccc1)c1c(NC(=O)C(F)(F)Cl)sc2c1CCCCC2` [Compound 6bo, 2-(2-Chloro-2,2-difluoro-acetylamino)-5,6,7,8-tetrahydro-4H-cyclohepta[b]thiophene-3-carboxylic acid phenylamide] showed an IC50 [1] of 925 nM.

In the case of `Cc1ccc(NC(=O)c2c(NC(=O)C(F)(F)F)sc3c2CCCC3)cc1` [Compound 6aw, 2-(2,2,2-Trifluoro-acetylamino)-4,5,6,7-tetrahydro-benzo[b]thiophene-3-carboxylic acid p-tolylamide], the IC50 [1] is reported as 200 to 300 nM and 220 nM.
